Data as given in EP0315019A2, “Fluoromethoxyphenyl-dihydropyridines, process for their preparation and their use in drugs” (BAYER AG, priority 1987, dated 1989).

Tested on: isolierter Meerschweinchen-Herzvorhöfe
Experiment: Effect on contraction amplitude of isolated guinea pig heart atria
Conditions: Wirkstoffkonzentration 10⁻³ g/l, read-out: Substanzeffekte auf die Kontraktionsamplitude, Änderung in %

SMILES: CCCCCCCCCCOC(=O)C1=C(C)NC(C)=C([N+](=O)[O-])C1c1ccccc1OC(F)F (racemic) [Beispiel 1, 4-(2-Difluormethoxyphenyl)-1,4-dihydro-2,6-dimethyl-3-nitro-pyridin-5-carbonsäure-decylester]
- activation at 1 µg/mL: 45%
